Laboratory results published in a melting point compilation (Tetko et al.; mined from patent text by program, amines drawn as free bases though some values may be those of a salt).

Work on `CCn1cc(C(=O)O)c(=O)c2cc(F)c(N3CCCC3)nc21` yielded a melting point of 299 to 300 °C. Work on `CC1=C(C(=O)N(C)Cc2ccc(Cl)cc2)SC2=NC(C)(C)CN21` yielded a melting point of 139 °C. Work on `COCc1ccc(-c2cn(-c3cc(C(=O)OC)c([N+](=O)[O-])cc3C(F)(F)F)cn2)cc1` yielded a melting point of 135 to 137 °C. With `CC(=O)OCC1OC(n2c(Br)nc3cc(Cl)c(Cl)cc32)C(O)C1O` (stereo unspecified) the melting point was 85 to 95 °C. Work on `O=C(O)CCCC(=O)N[C@@H](Cc1ccc(-c2ccccc2)cc1)C(=O)NCCCCNc1ncccn1` yielded a melting point of 228 °C. With `c1ccc(CN(Cc2ccccc2)c2ccc3sccc3c2)cc1` the melting point was 114 to 117 °C. In the case of `Oc1cc2[nH]c3ccccc3c2cc1O`, the melting point is reported as 279 to 283 °C. Compound `CN1C(=O)c2cnc(-c3ccccc3)nc2N(C(=O)CN2CCCC2)c2ccccc21` has a melting point of 196 °C. `O=C(c1cccc(C(=O)c2ccc(F)c([N+](=O)[O-])c2)c1)c1ccc(F)c([N+](=O)[O-])c1` showed a melting point of 148 to 149 °C. Work on `Cc1ncsc1C(O)c1cccc(O)c1` (stereo unspecified) yielded a melting point of 181 to 184 °C. Work on `CCCCNC(=O)c1nc2cnn(CC)c2nc1-c1ccccc1` yielded a melting point of 127 to 128 °C. Work on `CCOC(=O)C(=O)NS(=O)(=O)Cc1nc(-c2ccc(Cl)c(Cl)c2)cs1` yielded a melting point of 180 to 182 °C. `Cc1nnc2c3[nH]cnc3n(Cc3ccccc3)c(=O)n12` gave a melting point of 309 to 310 °C. Work on `CN(CCCNc1ncc(Cc2ccccc2Cl)c(=O)[nH]1)c1ccccn1` yielded a melting point of 47 to 49 °C. In the case of `CCOC(=O)C1=C(N)NC(N)=C(C(=O)OCC)C1c1ccccc1N=[N+]=[N-]`, the melting point is reported as 250 °C. With `COc1cccc2c1C(=O)c1ccccc1C2(CC(=O)O)CC(=O)O` the melting point was 239 to 243 °C. With `COc1ccc2c3ccnc(C)c3n(CCCc3ccccc3)c2c1` the melting point was 117 to 118 °C. `CC1(C)CCOC1(O)C(Cc1ccc(Cl)cc1)n1cncn1` (stereo unspecified) showed a melting point of 98 °C. Work on `CCCCC1CCc2c(OCc3ccc4ccccc4n3)cccc2C1O` (stereo unspecified) yielded a melting point of 130 to 133 °C. Compound `O=c1oc2cccc(O)c2c(OCCN2CCOCC2)c1-c1ccccc1` has a melting point of 206 °C. `Cn1c(C(=O)OCc2cc(C(F)(F)F)cc(C(F)(F)F)c2)c(-c2ccccc2)c2ccccc2c1=O` showed a melting point of 153 to 154 °C. With `N#Cc1ccc(N2C(=O)[C@@H]3[C@H](O)CCN3C2=O)c2ccccc12` (relative stereo) the melting point was 224 to 225 °C. For `COCc1c(C(=O)OC(C)C)ncc2[nH]c3cccc(-c4cccnc4)c3c12`, the melting point was 187 to 188 °C. Work on `COC1=CC(C=O)(NC(c2ccccc2)(c2ccccc2)c2ccccc2)NC=C1` (stereo unspecified) yielded a melting point of 172 °C. Work on `CCCCCCCCCCOc1ccc(C(=O)c2cccc(C(=O)O)c2)cc1Cc1nnn[nH]1` yielded a melting point of 147 to 150 °C. `Nc1c(-c2ccc(-c3ccccc3F)cc2)nc2ccc(F)cc2c1C(=O)O` showed a melting point of 248 to 250 °C. Work on `Clc1ccc(C2(Cn3cncn3)OCOC2c2ccc(Cl)cc2Cl)cc1` (stereo unspecified) yielded a melting point of 201 to 203 °C. For `FC(F)(F)c1cc(Cl)c(Oc2cc(C3CC3)[nH]n2)c(Cl)c1`, the melting point was 119 to 121 °C. For `CC(=O)Nc1ccc(-c2c[nH]c(=O)c(C)n2)cc1`, the melting point was greater than 300 °C. `O=Cc1ccc(-c2ccccc2)c(Cl)c1` gave a melting point of 70 to 72 °C. `OCCCc1cn(C(c2ccccc2)(c2ccccc2)c2ccccc2)cn1` gave a melting point of 130 °C. With `Oc1nnc2ccccc2n1` the melting point was 204 to 206 °C. `O=C1C=CC(O)(c2nc3ccccc3s2)C(Sc2ccccc2)C1` (stereo unspecified) gave a melting point of 66 °C. `O=c1[nH]c(C2CC2)nc2c1cnn2-c1ncc(C(F)(F)F)cc1Cl` showed a melting point of 239 °C. For `O=C(CS(=O)Cc1ccc(F)cc1)NO` (stereo unspecified), the melting point was 176 to 177 °C. With `COc1cccc([C@H]2O[C@H](CC(=O)Nc3cc(Cl)cc4cc(C(=O)O)oc34)C(=O)N(CC(C)(C)CO)c3ccc(Cl)cc32)c1OC` the melting point was 179 to 180 °C. `N#Cc1ccc2oc(C(=O)CBr)cc2c1` showed a melting point of 156 to 158 °C. `Cc1ccc2c(N=[N+]=[N-])c(C(=O)O)cnc2n1` showed a melting point of 198 °C. For `CC(C)(C)OC(=O)C1C=CCn2c(=O)n(CCCl)c(=O)n21` (stereo unspecified), the melting point was 87 to 88 °C. Work on `O=C(NC[C@H]1O[C@H]1c1ccccc1)c1ccc(NC(=O)C(F)(F)F)cc1` (racemic) yielded a melting point of 190 °C. Work on `CSCC(C)(C)NC(=O)c1c(I)cccc1[N+](=O)[O-]` yielded a melting point of 114 to 115 °C. `CC1=Nc2ccccc2CN1C1CCC(=O)NC1=O` (stereo unspecified) showed a melting point of 78 to 85 °C. For `Cn1nc(-c2ccccc2)c2cccc(NS(C)(=O)=O)c2c1=O`, the melting point was 217 to 218 °C. `N#CC(C=O)c1cccc(C(F)(F)F)c1` (stereo unspecified) gave a melting point of 103 to 106 °C. `CC(=O)OCc1coc(-c2cccc(C3=Nc4ccc(-n5cccc5)cc4NC(=O)C3)c2)n1` showed a melting point of 206 to 207 °C. `CCCC#Cc1ccnc2[nH]cc(-c3ccnc(N)n3)c12` gave a melting point greater than 210 °C. `O=c1[nH]c2ccc(S(=O)CCN3CCC(Cc4ccccc4F)CC3)cc2o1` (stereo unspecified) gave a melting point of 179 to 181 °C. `O=C(CCC(=O)N1CCCCC1c1ccccc1)c1ccc2c(c1)CCNCC2` (stereo unspecified) gave a melting point of 114 °C. Compound `OCC(CO)(Cc1ccccc1)Cc1ccccc1` has a melting point of 105 °C. In the case of `c1ccc(C2NCCc3sccc32)cc1` (stereo unspecified), the melting point is reported as 79.8 to 80.7 °C. `Cc1cc([N+](=O)[O-])c(Cl)nc1C` gave a melting point of 72 to 76 °C. Work on `CN1CCN(c2ncc3c(=O)c(C(=O)O)cn(Cc4ccccc4)c3n2)CC1` yielded a melting point of 251 to 255 °C. Work on `CC(C)(C)c1ccc(N)nn1` yielded a melting point of 125 to 132 °C. Compound `Cc1ccc(-c2nn(-c3cccc(OC(F)(F)F)c3)c(N)c2C(N)=O)cc1` has a melting point of 177 to 179 °C. Work on `CC(C)c1ccc2oc(=O)c(NC(=O)Nc3ccc(F)cc3F)c(-c3ccc(F)cc3)c2c1` yielded a melting point of 216 to 217 °C. With `Nc1nnc(-c2ccc(C(F)(F)F)cc2)n1-c1cc(Cl)ccc1O` the melting point was 147 to 155 °C. Work on `CCOC(=O)/C=C(C)/C=C/C=C(\C)C1=Cc2cc(C(C)(C)C)cc(C(C)(C)C)c2OC1` yielded a melting point of 130 to 131 °C. `CCOC(=O)c1cn(C2Cc3cc(F)ccc3C2=O)c(C(=O)OCC)n1` (stereo unspecified) gave a melting point of 138 °C. With `CCSC1(SCC)C(O)CC2C3CCC4=CC(=O)C=CC4(C)C3(F)C(OC(C)=O)CC21C` (stereo unspecified) the melting point was 181 to 182 °C. Compound `CN1CCN(C(=O)c2ccc(-c3cc(-c4c[nH]nc4-c4ccccn4)ccn3)cc2)CC1` has a melting point of 142 °C. `O=C1Nc2ccccc2CN1C1CCN(Cc2ccccc2)CC1` gave a melting point of 204 to 206 °C. In the case of `CCOc1nnc2n1C=Cc1ccccc1C2`, the melting point is reported as 143 to 144 °C. For `CCCN1C(=O)COc2ccc(N3C(=O)C(C)=C(C)C3O)cc21` (stereo unspecified), the melting point was 124 to 125 °C. Compound `CCCCCCNC(=O)[C@@H]1CCC(=O)N1` has a melting point of 95 °C. Work on `COc1cc2cnnc(N3CCC(CCN(C)C(=O)N(C)C)CC3)c2cc1OC` yielded a melting point of 140 to 141 °C. In the case of `COc1cc(Cc2cnc(N)nc2N)c2c(c1OC)OC(C)CC2=O` (stereo unspecified), the melting point is reported as 128 to 132 °C. Compound `Nc1nc(N)c2ncn([C@H]3C=C[C@@H](O)C3)c2n1` (racemic) has a melting point of 167 to 170 °C. Work on `ClC1(CBr)C=CC=CN1` (stereo unspecified) yielded a melting point of 40 to 43 °C. In the case of `CCCCCCCCCCC(C)(C)C(=O)Nc1c(C)c(N)c(C)c2c1OC(C)(C)C2`, the melting point is reported as 125 °C. For `Nc1cccc(-c2ccc(CCN3CC4C(C3)C4NC(=O)Cc3ccc(F)cc3)cc2)n1` (stereo unspecified), the melting point was 161 to 163 °C. In the case of `OCCc1cccc2c(-c3ccccc3)c(Br)oc12`, the melting point is reported as 108 to 112 °C. With `O=C1NC(=O)C(c2c[nH]c3cc(F)ccc23)=C1C1=COc2ccccc2O1` the melting point was 203 °C. For `CN1CC=C(c2c[nH]c3ccc(N)cc23)C(F)C1` (stereo unspecified), the melting point was 176 to 178 °C. With `Cc1cc(C=NO)ccc1C(=O)NCc1ccccn1` the melting point was 160 to 161 °C. Compound `CCc1ccc(C(O)COc2ccc(C=O)cc2)nc1` (stereo unspecified) has a melting point of 80 °C. With `CCCOCC1(c2onc(-c3ccc(O)cc3)c2-c2ccccc2)CC1` the melting point was 111 to 112 °C. For `CCn1cc(C(=O)NCc2ccc(Cl)cc2)c(=O)c2cc(C#CCO)sc21`, the melting point was 217 to 219 °C. With `N#Cc1ccc(N2C(=O)N(CC#CCO)C(CF)(CF)C2=O)cc1C(F)(F)F` the melting point was 131 to 132 °C. In the case of `CCCn1c(=O)n2c(C)nnc2c2c1ncn2C`, the melting point is reported as 192 to 194 °C. Work on `COc1ccccc1C=CC(=O)CC(=O)C=Cc1ccccc1OC` yielded a melting point of 121 to 123 °C. Work on `COc1ccccc1CNc1cc(C(N)=O)c([N+](=O)[O-])cc1[N+](=O)[O-]` yielded a melting point of 198 to 202 °C. `CCOP(=O)(CCN1CC(O)CNc2c1c(=O)c2=O)OCC` (stereo unspecified) gave a melting point of 169 to 171 °C. `O=Cc1cc2sccc2c2ccccc12` showed a melting point of 101 to 102 °C. `COC(=O)c1ccc(OCC2CC(=O)N(c3ccc(O)cc3)C2)cc1` (stereo unspecified) gave a melting point of 141 to 144 °C. `CCCC(=O)c1ccc(N(CCO)CCO)cc1` showed a melting point of 72 to 75 °C. `COc1cccc(CNc2nccc(-c3cc(N4CCN(CCCN5CCCC5)CC4)c4cc(OC)ccc4c3)n2)c1` gave a melting point of 160 to 167 °C. `CCCOc1ccccc1-c1ccc(C(N)=O)c(=O)[nH]1` gave a melting point of 176 to 178 °C. With `O=C(N[C@H](Cc1cccc(OCC(F)(F)C(F)F)c1)[C@@H](O)c1ccc(F)cc1)c1ccc(F)c2ccccc12` (racemic) the melting point was 160 to 161 °C. With `CC(=O)NC[C@H]1CN(c2ccc(C(=O)c3cnc4cc(-c5ccccc5)ccn34)cc2)C(=O)O1` the melting point was 256 to 258 °C. Compound `O=C1COc2ccc([N+](=O)[O-])cc2N1` has a melting point of 221 to 223 °C. `CC(C)c1cc(C(C)(C)C)cc(Br)c1OCc1ccccc1` showed a melting point of 47 to 49 °C. `COC=C(C(=O)OC)n1ccc2ccc(-c3nccc(-c4ccccc4)n3)cc21` gave a melting point of 85 °C. In the case of `COC(=O)c1c(C)c(OC)cc(OC)c1C=O`, the melting point is reported as 164 to 165 °C. `C(=Cc1ccnc2[nH]c3ccccc3c12)c1ccccc1` showed a melting point greater than 220 °C. Work on `Cc1cc(NCC(=O)N(C)c2ccccc2)nc(-c2ccccc2)n1` yielded a melting point of 134 to 136 °C. `Cc1cc(C)cc(NCc2ccc3nc(NCCCN4CC(C)OC(C)C4)n(Cc4nc(C)ccc4O)c3c2)c1` (stereo unspecified) gave a melting point of 192 °C. `COC1CN(c2ccc(N3C[C@H](CNC(C)=O)OC3=O)cc2F)C1` showed a melting point of 160 to 162 °C. In the case of `CSc1nc(-c2ccccn2)n(-c2ccc(F)cc2)c(=O)c1C#N`, the melting point is reported as 221 to 227 °C. `CNC(=O)c1ccc(C=CC(=O)NCC(=O)N(C)c2ccc(C)c(COc3cccc4c3nc(SC)n4C)c2C)cc1` showed a melting point of 224 to 225 °C. `CC(=O)SCC(CC(C)C)C(=O)Nc1cc(C)cc(C(=O)O)c1` (stereo unspecified) gave a melting point of 185 to 187 °C. In the case of `CCCCc1ncc(/C=C(\Cc2ccccc2)C(=O)O)n1Cc1c(F)cccc1Cl`, the melting point is reported as 204 to 206 °C.
